Test results published in patent US7763567B2, “Agrochemical compositions” (priority 2003, dated 2010).
Where a name gives a salt, the structure may show the parent alone. Read-outs that look alike come from different tables or passages of the source.

Key:
[1] = tested on: eight representative weed species; format: in vivo
Protocol: (§1) The bioperformance enhancement of paraquat in the presence of amines of the present invention was evaluated. An aqueous formulation of paraquat dichloride containing 0.5% by weight of amine (based on the weight of the parent amine and based on total spray volume) was applied using a moving track sprayer to eight representative weed species at 10, 20 and 40 g/ha (based on paraquat ion). The spray volume was equivalent to 200 l/ha.
(§2) Three replicates of each test were undertaken and the biological data (% activity where 0% represents no herbicidal effect and 100% represents complete kill) at 7 days after treatment is expressed in Table 4 as a mean over all species based on an average response over the combined rates. The results are compared with an equivalent formulation containing only paraquat chloride.
as §1, with “presence of some amines of” for “presence of amines of”, “dichloride containing 0.2% by weight” for “dichloride containing 0.5% by weight”
as §2, with “5” for “4”, “equivalent standard” for “equivalent”, “containing” for “containing only”, “chloride and 0.2% of an effective adjuvant blend” for “chloride.”

[2] = tested on: Ipomoea hederacea (IPOHE); format: in vivo
From the text: (§3) TEDA was first neutralized with hydrochloric acid to form the TEDA hydrochloride. An aqueous formulation of paraquat dichloride containing 0.5% by weight of TEDA based on total spray volume was applied to test species Ipomoea hederacea (IPOHE) and Sida spinosa (SIDSP) at 10 and 30 g/ha (based on paraquat ion). The spray volume was equivalent to 200 L/ha The biological data (% activity) at 6 days after treatment is expressed in Table 1 as an average response over the combined rates and is compared with an equivalent formulation containing only paraquat chloride.
(§4) The following compositions were compared using the general procedure of Example 1. TEDA was used in the form of its hydrochloride: • 1. An aqueous formulation containing paraquat dichloride and 0.5% by weight of TEDA hydrochloride based on total spray volume; • 2. An aqueous formulation containing paraquat dichloride and 0.5% by weight based on total spray volume of a mixture of TEDA hydrochloride and the surfactant EMPIGEN BB and TEDA at a ratio of TEDA to EMPIGEN BB of 5:2. EMPIGEN BB is lauryl betaine supplied at a concentration of 30%. The proportions given above and below are based on lauryl betaine content. • 3. An aqueous formulation (comparison) containing paraquat dichloride and 0.5% by weight based on total spray volume of EMPIGEN BB • 4. An aqueous formulation containing paraquat dichloride and 0.5% by weight based on total spray volume of a mixture of TEDA hydrochloride and the surfactant AGRIMUL PG2067 and TEDA at a ratio of TEDA to AGRIMUL PG2067 of 5:2. AGRIMUL PG2067 is an alkylpolyglycoside supplied at a concentration of 70%. The proportions given above and below are based on alkylpolyglycoside content. • 5. An aqueous formulation (comparison) containing paraquat chloride and 0.5% by weight based on total spray volume of AGRIMUL PG2067.

Sida spinosa (SIDSP) = format: in vivo
From the text: as §3, §4

[3] = format: physicochemical; details: for loading at which compatible with compositions of WO 02/076212: actual amine
From the text: It is to be understood that the term physical incompatibility in relation to adjuvants used in bipyridyl compositions indicates either gross separation of one or more components of the composition which may or may not be accompanied by a significant change in formulation rheology or bulk homogeneity. It is not necessarily essential that the composition is fully homogeneous in a strict physical sense provided that the composition is substantially homogeneous in the bulk. Thus a slight separation of a second phase may be acceptable provided that the separated phase remains fully dispersed in the bulk. […] This is obviously undesirable for a number of reasons. The term physical compatibility indicates the reverse of physical incompatibility as defined above.

[4] = Example 2, general procedure of Example 1, adjuvant 0.5% by weight of total spray volume, TEDA:surfactant 5:2
[5] = Example 3, procedure of Example 1, adjuvant 0.5% by weight of total spray volume, TEDA salts with anionic surfactants
[6] = Example 4, 0.5% by weight amine, paraquat 10, 20 and 40 g/ha, 200 l/ha, 7 days after treatment, mean over all species and combined rates, three replicates

For `NCCN` [EDA as HCl salt, ethylenediamine, reference compound], the “Mean Activity (%)” value ([1]; in vivo) was 54%.
With `C1CN2CCN1CC2` [TEDA, Triethylenediamine] the “% Activity IPOHE” value [2, 4] was 64.4%, the “% Activity IPOHE” value [2, 5] was 63.8% and the “% Activity SIDSP” value (Sida spinosa (SIDSP); [4]) was 35.8%. The “% Activity SIDSP” value (Sida spinosa (SIDSP); [5]) was 45.9%, the “loading at which compatible with compositions of WO 02/076212” value (shortened to “loading at which compatible”) [3] was at least 60 g/L and the “Mean Activity (%)” value [1, 6] was 61%.
With `NCCNCCNCCN` [TETA as HCl salt, triethylenetetramine, reference compound] the “loading at which compatible” value [3] was “less than 30 g/l” and the “Mean Activity (%)” value ([1]; in vivo) was 60%.
With `CN(C)CCN(C)C` [TMEDA as HCl salt, tetramethylethylenediamine] the “loading at which compatible” value [3] was at most 30 g/L, the “Mean Activity (%)” value [1, 6] was 59% and the “Mean Activity (%)” value ([1]; Example 5, 0.2% by weight amine, paraquat 10, 20 and 40 g/ha, 200 l/ha, 7 days after treatment, mean over all species and combined rates, three replicates) was 56%.
With `CCCCCCCCOC(=O)CC(C(=O)OCCCCCCCC)S(=O)(=O)O.[Na]` (stereo not shown) [sodium dioctyl sulphosuccinate, reference compound] the “level at which physical separation / two phases observed” value ([3]; about 120 g/l paraquat ion, about 80 g/l diquat ion, alginate, about 120 g/l magnesium sulphate heptahydrate) was “below 10 g/l”.
